Publication PMC4618636 (Pharmacology Research & Perspectives, 2015)
Values joined by “and” are separate entries in the source; they are usually repeats but may differ in a detail not shown here. Equal entries are not always repeated. Where two headings read alike, the source gives them in different places.

How the values were obtained:
CYP3A4 [1] = conditions: for CYP3A4 RIS: mean of two experiments; for CYP3A4 % Rif: relative to positive control rifampicin, equation 2; for CYP3A4 Ind50: column headed Ind50 in Table 5
CYP3A4 [2] = conditions: in vivo induction value used for the RIS calibration; cited from earlier work
CYP2B6 = conditions: for CYP2B6 Indmax: mean from two experiments; for CYP2B6 % PB: relative to positive control phenobarbital, equation 2
[3] = upcyte Donor 10-03, mean from two experiments
[4] = upcyte Donor 10-03, values of two experiments
[5] = upcyte Donor 151-03, mean from two experiments
[6] = upcyte Donor 151-03, values of two experiments
[7] = upcyte Donor 422A-03, mean from two experiments
[8] = upcyte Donor 422A-03, values of two experiments
[9] = upcyte Donor 653-03, mean from two experiments
[10] = negative controls, any concentration tested (quinidine 0.1–250 μmol/L, flumazenil 0.05–50 μmol/L), data not shown
[11] = upcyte Donor 653-03, values of two experiments

SMILES	CYP3A4 Indmax (CYP3A4 [1]; [3])	CYP3A4 RIS (CYP3A4 [1]; upcyte Donor 10-03)	CYP3A4 % Rif (CYP3A4 [1]; upcyte Donor 10-03)	CYP3A4 Indmax (CYP3A4 [1]; [4])	CYP3A4 Indmax (CYP3A4 [1]; [5])	CYP3A4 RIS (CYP3A4 [1]; upcyte Donor 151-03)	CYP3A4 % Rif (CYP3A4 [1]; upcyte Donor 151-03)	CYP3A4 Indmax (CYP3A4 [1]; [6])	CYP3A4 Indmax (CYP3A4 [1]; [7])	CYP3A4 RIS (CYP3A4 [1]; upcyte Donor 422A-03)	CYP3A4 % Rif (CYP3A4 [1]; upcyte Donor 422A-03)	CYP3A4 Indmax (CYP3A4 [1]; [8])	CYP3A4 Ind50 (CYP3A4 [1]; upcyte Donor 653-03)	CYP3A4 Indmax (CYP3A4 [1]; [9])	CYP3A4 RIS (CYP3A4 [1]; upcyte Donor 653-03)	% Decrease in midazolam AUC (CYP3A4 [2])	CYP2B6 Indmax (CYP2B6; upcyte Donor 10-03)	CYP2B6 % PB (CYP2B6; upcyte Donor 10-03)	CYP2B6 Indmax (CYP2B6; upcyte Donor 151-03)	CYP2B6 % PB (CYP2B6; upcyte Donor 151-03)	other results
CCc1ccc(CCOc2ccc(CC3SC(=O)NC3=O)cc2)nc1 (stereo not shown) [Pioglitazone, pioglitazone]	4.3 fold	0.0079	11%	4.4 fold and 4.2 fold	4.0 fold	0.0040	48%	4.0, 4.0 fold	2.6 fold	0.0040	14%	2.3 fold and 2.8 fold	91	9.2 fold	0.0066	26%	2.6 fold	55%	1.9 fold	49%	CYP2B6 Indmax (CYP2B6; upcyte Donor 422A-03): 3.6 fold; CYP2B6 % PB (CYP2B6; upcyte Donor 422A-03): 42%; CYP2B6 Indmax (CYP2B6; upcyte Donor 653-03): 2.1 fold; CYP2B6 % PB (CYP2B6; upcyte Donor 653-03): 54%
C=C[C@H]1C[N@@]2CC[C@H]1C[C@@H]2[C@@H](O)c1ccnc2ccc(OC)cc12 [Quinidine, quinidine]	No induction	No induction	No induction	No induction	No induction	No induction	No induction	No induction	No induction	No induction	No induction	No induction	No induction	No induction	No induction	0%	No induction	No induction	No induction	No induction	CYP3A4 induction (CYP3A4 [1]; [10]): did not induce; CYP3A4 Indmax (CYP3A4 [1]; [11]): No induction; CYP2B6 induction (CYP2B6; [10]): did not induce; CYP2B6 Indmax (CYP2B6; upcyte Donor 422A-03): No induction; CYP2B6 % PB (CYP2B6; upcyte Donor 422A-03): No induction; CYP2B6 Indmax (CYP2B6; upcyte Donor 653-03): No induction; CYP2B6 % PB (CYP2B6; upcyte Donor 653-03): No induction
Cc1c(C)c2c(c(C)c1O)CCC(C)(COc1ccc(CC3SC(=O)NC3=O)cc1)O2 (stereo not shown) [Troglitazone, troglitazone]	4.7 fold	0.083	12%	5.0 fold and 4.4 fold	1.8 fold	0.094	13%	2.3 fold and 1.3 fold	2.7 fold	1.030	15%	2.6 fold and 2.7 fold	14	2.2 fold	0.466	67%	5.4 fold	150%	2.1 fold	57%	CYP3A4 Indmax (CYP3A4 [1]; [11]): 1.8 fold and 2.6 fold; CYP2B6 Indmax (CYP2B6; upcyte Donor 422A-03): 5.0 fold; CYP2B6 % PB (CYP2B6; upcyte Donor 422A-03): 63%; CYP2B6 Indmax (CYP2B6; upcyte Donor 653-03): 2.3 fold; CYP2B6 % PB (CYP2B6; upcyte Donor 653-03): 63%
